Assay results as given in patent US20070254055A1, “Therapeutic Avenanthramide Compounds” (TRUSTEES OF TUFTS COLLEGE, priority 2003, published 2007).

Key:
[1] = system: VCAM-1; experiment: HASMC expression of VCAM-1; format: cell-based, human
[2] = system: pRb; experiment: pRb phosphorylation Western blot, FBS-stimulated A10 cells; format: cell-based, rat; conditions: 10% FBS, 20 h
Description: (§1) Protein from 5×10^4 cells was subjected to electrophoresis on 7.5-10% SDS-polyacrylamide gels and electro-transferred to nirocellulose membrane. Nonspecific binding was blocked by incubating with Tris-buffered saline (TBS) [137 mM NaCl, and 15 mM Tris-HCl (pH 7.6)] containing 5% non-fat milk (w/v) for 1 h at room temperature and then probed with primary antibody against p53, p21, p27, cyclin D1 and pRb overnight. After washing in TBS-Tween 20 buffer (0.075% v/v), the membranes were incubated with horseradish peroxidase-conjugated anti-IgG antibody. Proteins bound to the primary antibodies were detected with ECL detection reagents.
Based on the above findings that treatment of A10 cells with Avn arrests the cell cycle at G1 phase, the effect of Avn treatment on cell cycle regulatory molecules involved in G1 phase of the cell cycle progression were analyzed. pRB, the product of the retinoblastoma tumor suppressor gene, is a major cell cycle regulator and its hyperphosphorylation (ppRb) is necessary for G1-S phase transition. To elucidate the mechanism by which Avn inhibits the cell cycle progression, the changes in pRB phosphorylation status were measured using anti-phospho-pRb specific antibody. FIG. 11 is a Western blot showing the effects of Avn on pRB phosphorylation. Av inhibits pRb phosphorylation in A10 cells stimulated with FBS. […]

[3] = system: p27Kip1; experiment: p27Kip1 expression Western blot, A10 cells; format: cell-based, rat; conditions: 10% FBS, 20 h
Description: as §1
Cyclin-dependent kinase (cdk) inhibitors play important roles in cell cycle progression. P21cip1 is the main target of p53 medicated cell cycle inhibition. […] The effect of Avn on this CDK inhibitor p21cip1 protein expression was determined by Western blotting. A10 cells were synchronized by growning in FBS-free medium for 24 h. The cells were then stimulated with 10% FBS in the absence or presence of different concentrations of substantially purified Avn-C. After 20 h, total cell lysates were prepared and subjected to SDS-PAGE followed by Western blot analysis to detect p21cip and p27kip. β-Actin expression was used as loading control. […]

[4] = system: cyclin D1; experiment: Cyclin D1 expression Western blot, FBS-stimulated A10 cells; format: cell-based, rat; conditions: 10% FBS, 20 h, dose-dependent
Description: as §1
Cells were treated with 10% FBS in the presence and absence of substantially purified Avn-C as described above. 20 h after the addition of serum to quiescent A10 cells, the amount of cyclin D1 was measured by Western blotting using polyclonal anti-cyclin D1 antibody. β-Actin expression level was used as a loading control.

[5] = system: p53; experiment: Half life of p53 protein, cycloheximide chase, A10 cells; format: cell-based, rat
Description: At 80% confluence, A10 cells seeded into 100 mm culture dishes and were treated with different concentrations of Av (0, 40, 80 and 120 μM) for 24 h. Following Avn treatment, the total cell extracts were harvested with 2× protein sample buffer [0.14 M Tris/HCl (pH 6.8), 22.4% glycerol, 6% SDS, 0.02% […], and 10% β-mercaptoethanol] by scraping the cells. The genomic DNA is sheared by passing through a 21-gauge syringe several times. The homogenized cell lysates were boiled for 5 min and centriftiged at 12,000 rpm for 5 min. Protein half life studies are performed as described before. Briefly, cells were treated with Avn for 4-6 h. […] Cells were harvested in 2× protein sample buffer at 0, 30, 60 and 120 min after cycloheximide addition. Protein samples were analyzed by Western blot.
P53 protein level is mainly regulated at a posttranslational level, usually via control of protein stability. To determine whether increased protein stability might play a role in the increased p53 levels induced by Avn treatment observed in this study, the change in half life of p53 protein in Avn-treated and nontreated cells was explored. […] Whole cell extract was prepared at different time points (0, 30 and 60 min.) and p53 protein levels were measured by Western blot. […]

**Q.** How did the “HASMC expression of VCAM-1” value [1] turn out when O=C(/C=C/c1ccc(O)c(O)c1)Nc1ccc(O)cc1C(=O)O [Avn-C, Avenanthramide C] was run?
**A.** not affected

**Q.** And the “expression of the total amount of pRb” value [2]?
**A.** did not change

**Q.** And the “serum-induced pRB phosphorylation” value ([2]; different concentrations)?
**A.** dose-dependently inhibited

**Q.** What about the p27Kip1 protein expression [3] of the same molecule?
**A.** no significant effect

**Q.** What about the “FBS-induced cyclin D expression” value [4] of the same molecule?
**A.** attenuate

**Q.** What about the “p53 protein remaining after 1 h of cycloheximide treatment” value ([5]; 80 uM for 6 h, then 15 μg/mL cycloheximide) of the same molecule?
**A.** More than half

**Q.** What about the “half-life of p53” value ([5]; A10 cells (untreated about 20 min)) of the same molecule?
**A.** more than 1 h
